The source of these data is patent US20080206311A1, “Sucrase Activity Inhibitor, Glucoamylase Activity Inhibitor and Food and Feed Containing the Same” (MITSUI SUGAR CO., LTD., priority 2005, published 2008).

One experiment concerns the target T1, lactase (Rattus norvegicus, UniProt Q02401).
T1 construct: tissue Sigma Corporation; host or cells: rat small intestine (acetone powder), buffer extract, unpurified
T1 sequence (Q02401 868-1928): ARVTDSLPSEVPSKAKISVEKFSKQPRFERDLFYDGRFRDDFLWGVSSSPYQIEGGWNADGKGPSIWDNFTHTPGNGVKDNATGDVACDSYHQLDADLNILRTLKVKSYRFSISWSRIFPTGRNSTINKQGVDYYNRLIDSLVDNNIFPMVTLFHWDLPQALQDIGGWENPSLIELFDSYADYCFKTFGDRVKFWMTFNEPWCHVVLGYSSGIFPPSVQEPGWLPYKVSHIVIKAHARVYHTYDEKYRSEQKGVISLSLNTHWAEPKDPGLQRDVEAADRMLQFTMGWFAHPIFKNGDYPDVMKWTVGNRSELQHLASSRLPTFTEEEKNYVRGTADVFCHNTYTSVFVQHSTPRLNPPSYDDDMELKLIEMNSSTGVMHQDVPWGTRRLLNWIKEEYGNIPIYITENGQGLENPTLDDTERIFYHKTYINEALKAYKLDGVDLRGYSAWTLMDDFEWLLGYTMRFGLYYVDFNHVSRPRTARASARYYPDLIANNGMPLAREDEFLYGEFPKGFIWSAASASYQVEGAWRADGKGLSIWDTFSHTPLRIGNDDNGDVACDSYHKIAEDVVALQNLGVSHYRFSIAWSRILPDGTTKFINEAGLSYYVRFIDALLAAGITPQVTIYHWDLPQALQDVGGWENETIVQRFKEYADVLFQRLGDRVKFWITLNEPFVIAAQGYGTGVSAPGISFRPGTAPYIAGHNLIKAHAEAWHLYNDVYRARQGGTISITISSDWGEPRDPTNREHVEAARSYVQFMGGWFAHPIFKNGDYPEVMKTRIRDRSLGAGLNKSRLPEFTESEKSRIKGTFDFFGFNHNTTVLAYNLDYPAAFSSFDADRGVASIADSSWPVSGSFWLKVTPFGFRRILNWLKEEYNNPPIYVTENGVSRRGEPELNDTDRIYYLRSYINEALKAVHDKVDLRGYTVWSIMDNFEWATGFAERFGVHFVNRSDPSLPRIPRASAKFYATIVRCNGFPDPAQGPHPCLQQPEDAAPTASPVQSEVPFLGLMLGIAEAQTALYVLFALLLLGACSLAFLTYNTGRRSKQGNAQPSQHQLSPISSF
In words: Lactase activity inhibition with rat small-intestinal enzyme liquid, substrate lactose. To be noted: 5% lactose + 5% test sample. The class given is biochemical. On the procedure:
Two grams of rat small-intestinal acetone powder (ex Sigma Corporation) were dissolved in 20 ml of 0.1 M phosphate buffer (pH 6.8), left standing one day at 5° C., and subsequently subjected to centrifugal separation (8000 rpm×15 min.). The supernatant was filtered through a 0.8 μm membrane filter to obtain a small-intestinal enzyme liquid. This liquid contained a mixture of enzymes present in small intestine, such as sucrose, glucoamylase, maltase, and isomaltase.
Each 0.25 ml of the small-intestinal enzyme liquid was added to each 5 ml of Solutions 1 through 5 and placed in a water bath at 37° C. to allow them to react for 60 min. while shaken at 60 strokes/min. After the reaction, they were heated in a boiling water bath for 3 min. for inactivation of the enzymes.
The glucose concentration in each solution after the reaction was measured using the F-kit Glucose (ex Roche). A liberated glucose concentration (g/l) was calculated by subtracting the blank value (0.1 M phosphate buffer alone) and the concentration of glucose originally contained in the test sample from each glucose concentration measured.
Next, each of the liberated glucose concentration was input in the following equation to obtain decomposition inhibition ratio for maltase and sucrose. In the present tests, the substrates and the inhibitors were decomposed by enzymes present in the small-intestinal enzyme liquid. However, the enzymes decomposing the substrates are different from the enzymes decomposing the inhibitors. The decomposition inhibition ratio was determined as a measure for the inhibitory effect. When the inhibitor was added, the glucose concentration was lower than that seen when the substrate alone was reacted. A higher decomposition inhibition ratio means a stronger inhibitory effect.
Decomposition inhibition ratio,%={(A+B)−(AB)}+(A+B)×100 [Equation 1]
wherein (A+B) indicates a sum of a liberated glucose concentration in the control solution containing the test sample alone after the reaction (A) and a liberated glucose concentration in the control solution containing the substrate alone after the reaction (B); and (AB) indicates a liberated glucose concentration in the test solution containing the test sample (A) and the substrate (B), after the reaction.
The procedures in Example 1 were repeated with the exception that palatinit, palatinose or isomaltose was used as a test sample and lactose was used as a substrate. The test samples and the substrate were dissolved in 0.1 M phosphate buffer (pH 6.8) to attain the concentration shown in Table 5 to thereby prepare three test solutions. Besides, each of the test samples or the substrate was dissolved in 0.1 M phosphate buffer (pH 6.8) to attain the concentration shown in Table 5 to thereby prepare control solutions. Each 5 ml of the aforementioned test solutions and the control solutions was subjected to the enzymatic reaction according to the same procedures as in Example 1. The glucose concentration, the fructose concentration and the galactose concentration were measured. The galactose concentration was measured using F-kit Galactose (ex Roche). The liberated galactose concentration, g/l, was calculated by subtracting the blank value (0.1 M phosphate buffer alone) from the measured galactose concentration.

The target of experiment [1] is (Homo sapiens, UniProt P14410). To be noted: 4.3-56 mM sucrose as substrate, 14 mM palatinose as inhibitor; cited from earlier work.
Chain of (Homo sapiens, UniProt P14410) (P14410 whole entry): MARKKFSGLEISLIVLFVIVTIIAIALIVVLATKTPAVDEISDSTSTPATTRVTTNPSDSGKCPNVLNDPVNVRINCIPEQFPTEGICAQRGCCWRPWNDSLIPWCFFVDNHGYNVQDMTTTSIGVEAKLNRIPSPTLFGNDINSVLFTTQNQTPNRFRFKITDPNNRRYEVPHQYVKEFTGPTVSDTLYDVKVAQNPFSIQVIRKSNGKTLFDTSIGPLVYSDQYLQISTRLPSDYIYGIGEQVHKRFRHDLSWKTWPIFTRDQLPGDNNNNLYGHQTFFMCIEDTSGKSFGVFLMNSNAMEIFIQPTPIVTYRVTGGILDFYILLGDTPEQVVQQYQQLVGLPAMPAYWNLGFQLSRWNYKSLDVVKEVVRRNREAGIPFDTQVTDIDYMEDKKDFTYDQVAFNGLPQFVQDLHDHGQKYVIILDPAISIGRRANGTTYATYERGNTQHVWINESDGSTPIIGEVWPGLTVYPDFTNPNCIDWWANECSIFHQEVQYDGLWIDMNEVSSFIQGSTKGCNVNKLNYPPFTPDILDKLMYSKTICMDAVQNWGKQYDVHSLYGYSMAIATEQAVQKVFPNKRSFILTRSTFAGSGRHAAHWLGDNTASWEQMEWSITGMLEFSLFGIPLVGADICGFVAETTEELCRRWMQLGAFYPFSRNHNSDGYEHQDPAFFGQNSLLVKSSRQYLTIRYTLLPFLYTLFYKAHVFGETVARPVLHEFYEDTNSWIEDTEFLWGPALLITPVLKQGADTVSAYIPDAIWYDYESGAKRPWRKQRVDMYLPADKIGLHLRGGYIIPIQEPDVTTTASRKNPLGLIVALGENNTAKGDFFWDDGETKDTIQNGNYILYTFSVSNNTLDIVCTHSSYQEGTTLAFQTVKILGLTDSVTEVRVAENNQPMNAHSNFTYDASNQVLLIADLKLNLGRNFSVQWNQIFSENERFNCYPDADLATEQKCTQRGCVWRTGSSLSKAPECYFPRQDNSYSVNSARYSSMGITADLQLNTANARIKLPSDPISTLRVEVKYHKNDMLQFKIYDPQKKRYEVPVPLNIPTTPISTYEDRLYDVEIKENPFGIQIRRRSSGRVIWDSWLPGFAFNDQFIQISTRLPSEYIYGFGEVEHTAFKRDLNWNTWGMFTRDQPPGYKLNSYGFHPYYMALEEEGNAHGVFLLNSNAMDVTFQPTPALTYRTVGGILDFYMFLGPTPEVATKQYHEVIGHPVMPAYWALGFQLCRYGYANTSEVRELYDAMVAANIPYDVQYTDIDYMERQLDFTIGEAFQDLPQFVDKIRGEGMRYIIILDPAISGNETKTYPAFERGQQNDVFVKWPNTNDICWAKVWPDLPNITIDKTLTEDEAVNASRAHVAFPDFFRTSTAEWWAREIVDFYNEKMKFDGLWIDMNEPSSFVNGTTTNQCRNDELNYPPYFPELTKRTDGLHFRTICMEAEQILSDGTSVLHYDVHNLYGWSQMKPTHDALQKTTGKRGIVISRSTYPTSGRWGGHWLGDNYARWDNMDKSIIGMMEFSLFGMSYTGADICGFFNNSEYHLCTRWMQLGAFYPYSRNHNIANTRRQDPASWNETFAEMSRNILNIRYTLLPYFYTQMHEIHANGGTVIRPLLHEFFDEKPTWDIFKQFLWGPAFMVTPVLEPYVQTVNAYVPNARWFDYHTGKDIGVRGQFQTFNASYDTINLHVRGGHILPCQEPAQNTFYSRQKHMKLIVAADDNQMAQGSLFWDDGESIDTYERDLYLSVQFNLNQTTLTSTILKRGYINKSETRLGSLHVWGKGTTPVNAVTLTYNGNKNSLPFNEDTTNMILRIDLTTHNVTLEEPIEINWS

Take `OC[C@H]1O[C@H](OC[C@H]2OC(O)(CO)[C@@H](O)[C@@H]2O)[C@H](O)[C@@H](O)[C@@H]1O` (stereo partly drawn) [palatinose, isomaltulose]: on lactase, the “Decomposition inhibition ratio, %, against lactase” value came out at 3%; the “Lactase activity inhibitory effect (in words)” value is recorded as “no lactose inhibitory effect was appreciable”; the Liberated fructose concentration stood at 0.23 g/L; the Liberated galactose concentration came out at 0.12 g/L. Further, the Liberated glucose concentration on lactase worked out at 0.33 g/L. Also, the “Inhibitory effect on the sucrase activity (reported)” value in experiment [1] is on record as “no inhibitory effect”.
